Consider three compounds from patent US20180008665A1, “METHODS OF TREATING AND PREVENTING GOUT AND LEAD NEPHROPATHY” (priority 2016, published 2018).

How the values of series [1] were obtained: (§1) Each tablet contains 450 mg of pharmaceutical grade of GSH powder.
(§2) Seven (7) subjects with gout and hyperuricemia were examined. Specifically, these seven subjects were part of an open-label, twelve (12) weeks study in which they received 2700 mg daily (450 mg/tablet, 2 tablets/time, 3 times/day) of (2S)-2-Amino-4-{[(1R)-1-[(carboxymethyl)carbamoyl]-2-sulfanylethyl]carbamoyl}butanoic acid (hereinafter “CT° 1”).

The procedure of series [2]:
as §1, §2
All of the subjects were classified as renally impaired (glomerular filtration rate <80 ml/minute). A serum creatinine test measures the level of creatinine in the blood and provides an estimate of glomerular filtration rate that indicates the excretory function of the kidney. If the kidney functions improperly, an increased level of creatinine may accumulate in the blood.
This is another data set of the same source.

The conditions of series [3]: initiation during an acute gout attack, 57 men with crystal-proven gout; cited from earlier work.
The conditions of series [4]: in vivo; cited from earlier work.
The mark [5] stands for this setting: after 12 weeks of treatment versus first visit, 2700 mg daily oral.

Molecules are shown by their SMILES.

Turning to `N[C@@H](CCC(=O)N[C@@H](CS)C(=O)NCC(=O)O)C(=O)O` [CT°I, (2S)-2-Amino-4-{[(1R)-1-[(carboxymethyl)carbamoyl]-2-sulfanylethyl]carbamoyl}butanoic acid], in series [1] (7 subjects, 2700 mg daily oral, 12 weeks, first visit 49.90±8.41 μg/dL), the “mean blood lead level after 12 weeks of treatment” value was found to be 37.26 ± 6.29 µg/dL. Besides, the “mean serum urate after 12 weeks of treatment” value in series [1] (7 subjects, 2700 mg daily oral, 12 weeks, first visit 521.07±40.11 mg/L) turned out to be 346.46 ± 21.17 mg/L. For the same compound, in series [1] (setting [5]), the “reduction of blood lead level” value amounted to 25.33% and the “reduction of serum urate” value amounted to 33.51%. In series [1] (p<0.05, 2700 mg daily oral), the “significance of the reduction of blood lead level” value is reported as “significantly different after 12 weeks of treatment” and the “significance of the reduction of serum urate” value is “significantly different after 8 weeks of treatment”. Moreover, the “mean serum creatinine after 12 weeks of treatment” value in series [2] (7 subjects, 2700 mg daily oral, 12 weeks, first visit 135.29±6.89 μmol/L) amounted to 99.00 ± 4.45 µmol/L. Further, the “reduction of serum creatinine” value in series [2] (setting [5]) came to 26.82%. Moreover, in series [2] (p<0.05, 2700 mg daily oral), the “significance of the reduction of serum creatinine” value is listed as “significantly different after 8 weeks of treatment”.
Regarding `Oc1ncnc2[nH]ncc12` [allopurinol], the “effect on daily pain, recurrent flares, or inflammatory markers” value in series [3] is reported as “no significant difference”.
Turning to `COc1cc2c(c(OC)c1OC)-c1ccc(OC)c(=O)cc1[C@@H](NC(C)=O)CC2` [colchicine], in series [4], the “part of the dose excreted unchanged by the kidney” value is 10-20% and the removal by hemodialysis entry is listed as “not removable by hemodialysis”.
